Laboratory results published in ChEMBL document CHEMBL3108688, “4-Thiazolidinones: the advances continue…” (Eur J Med Chem, 2014).
Converted amounts (≈) assume the structure as drawn.

Test system: Tacaribe virus
Experiment: Antiviral activity against Tacaribe virus TRVL11573
Format: functional, organism-based
Settings: Mammarenavirus tacaribeense

Compound COc1ccc(NC(=O)CC2SC(N3N=C(c4ccccc4)CC3c3ccc(OC)cc3)=NC2=O)cc1 (stereo unspecified) has an EC50 of 0.71 µg/mL (≈ 1.38 µM).
